Consider 35 compounds from ChEMBL document CHEMBL1157539, “Thousands of chemical starting points for antimalarial lead identification” (Nature, 2010).

The subject of the test is Plasmodium falciparum. Nature of the test: GSK_TCMDC: Inhibition of Plasmodium falciparum 3D7 in whole erythrocytes, using parasite LDH activity as an index of growth. It counts as functional, organism-based. The settings on record: Plasmodium falciparum, 3D7.
Regarding `COc1ccc2nc(-c3ccccc3)cc(N/N=C/c3ccc([N+](=O)[O-])o3)c2c1`, the XC50 came to 202 nM. Turning to `N=c1n(CCN2CCCCC2)c2ccccc2n1CC(O)c1cccc(Br)c1` (stereo not given), the XC50 was found to be 1140 nM.

In turn, `O=C(NCCN1CCCC1)c1cc(-c2ccc(Cl)c(O)c2)c(-c2ccncc2)o1` had an XC50 of 1630 nM. In the case of `CCOC(=O)C1=C(C)N=c2sc(=Cc3ccccc3O)c(=O)n2C1c1ccc(OC)c2ccccc12` (stereo not given) it was 1260 nM. Compound `COc1ccc(N(c2nc(-c3cc(Cl)ccc3Cl)cs2)C2CCNC2)cc1` (stereo not given) came in with an XC50 of 873 nM.

For `CCCCCCCN1CC[C@@H](CCCc2ccnc3ccc(OC)cc23)[C@@H](CNC)C1`, the XC50 was 211 nM. Compound `N=C(N)Nc1ccc(OCCCCCOc2ccc(NC(=N)N)cc2Br)c(Br)c1` had an XC50 of 262 nM.

On to `COc1cc(NC(=O)/C=C/c2cc(F)cc(F)c2F)cc(OCCN2CCCCC2)c1`, for which the XC50 is 153 nM. Next, `O=C(NC1CCC(CN2CCC(c3c[nH]c4ccccc34)CC2)CC1)c1cc2ccccc2o1` (stereo not given): 971 nM. Compound `CN(C)CCC1CCCc2ccc(NC(=O)Nc3cccc(Cl)c3Cl)cc21` (stereo not given) registered an XC50 of 958 nM. Next, `COc1ccc(S(=O)(=O)N2CCOCC2)cc1NC(=O)c1cc2ccccc2o1`: 795 nM.

In the case of `Nc1nccc(-c2ccc3c(-c4cccc(F)c4)cnc(N)c3c2)n1`, the XC50 is 1020 nM.

With `CN(CCO)Cc1ccc(-c2ccc(NS(=O)(=O)c3cccc4cccnc34)cc2)cc1`, the XC50 came out at 795 nM. In turn, `COc1cc(OC)c(NC(=O)C2c3ccccc3C(=O)N(C)C2c2cccs2)cc1Cl` (stereo not given) gave an XC50 of 764 nM. Next, `O=C(C=Cc1ccc(Cl)c(Cl)c1)NCCCCCN1CCC(CCNC(=O)c2sc3ccccc3c2Cl)CC1`: 1010 nM; `CC(=O)N1CCN(c2ccc(NC(=O)c3oc(-c4ccccc4)nc3C(F)(F)F)cn2)CC1`: 840 nM. Take `CC[C@H](C)CNCc1ccc(OCc2cccc(COc3ccc(CNC[C@@H](C)CC)cc3I)c2)c(I)c1`: the XC50 stood at 396 nM. Consider `CCc1ccc(C2CCN(CCCCNC(=O)c3ccc(-c4ccc(C(F)(F)F)cc4)cc3)CC2)c(OCCO)c1`, for which the XC50 is 410 nM. Next, `Cc1c(-c2cccc(NC(=O)C(C)(C)Oc3ccc(Cl)cc3)c2)nc2ncccn12`: 170 nM; `COc1ccc(-c2ccc(NC(=O)c3ccc(Cl)cc3)cc2)cc1CN1CCC(O)CC1`: 1090 nM. Next, `N[C@@H](COc1cccc2c(-c3ccncc3)c(-c3cccc(NC(=O)Nc4ccccc4)c3)nn12)c1ccccc1`: 408 nM; `Cc1c(C(=O)Nc2cc(Sc3ccc(F)cc3)cc([N+](=O)[O-])c2)sc2ncn(Cc3cccc(F)c3)c(=O)c12`: 720 nM.

`O=C(NCc1ccc(F)cc1)c1ccc(N2CCN(c3ccncc3)CC2)cn1` came in with an XC50 of 886 nM. In the case of `C=C(C)C1CC=C(CN2CCC(N3CCc4cc(NC(=O)c5cc(C)on5)ccc43)C2)CC1` (stereo not given) it was 707 nM; in that of `CN1CCN(c2ccnc3ccc(NC(=O)Nc4cccc5c(Br)cccc45)cc23)CC1`, 153 nM. In the case of `CCc1ccc(NC(=O)C=NNC(=N)N)cc1` it was 902 nM; in that of `Cc1cnc(Nc2cccnc2)nc1Nc1ccccc1C(=O)NC(C)C`, 1200 nM; in that of `Cc1noc(-c2cccs2)c1C(=O)NC(C)c1cccc2ccccc12` (stereo not given), 129 nM. Next, `Cc1nc2ccccc2c(=O)n1NCc1ccc(Cl)c(Cl)c1`: 146 nM. With `COc1cc(Cc2cnc(N)nc2N)cc(OCCCCC2SC(=O)NC2=O)c1Br` (stereo not given), the XC50 turned out to be 123 nM. Next, `Cc1ccc(C)c(C2CCN(CCCCNC(=O)c3ccc(NC(=O)c4ccc(Cl)cc4)cc3)CC2)c1`: 847 nM; `O=C(Nc1ccc(-c2nc3ccccc3[nH]2)cc1)c1cccc(S(=O)(=O)N2CCCC2)c1`: 743 nM; `Cc1cc(CNC(=O)c2ccc(-c3ccc(-c4nc5cc(C(F)(F)F)ccc5[nH]4)s3)cc2)on1`: 732 nM. `Cc1ccc(C)c(NC(=O)CC2C(=O)N(c3ccccc3)C(=S)N2Cc2ccco2)c1` (stereo not given) came in with an XC50 of 570 nM. Next, `COc1ccc(-c2cccc(NC(=O)c3ccc(F)cc3)c2)cc1CN1CCCN(C)CC1`: 833 nM.
